Patent US9060966B2, “Use of 2,5-dihydroxybenzene derivatives for the treatment of arthritis and pain” (priority 2006, dated 2015)
“Also recorded” adds a separate entry of the source.

Legend:
[1] = molecular target: T1, fibroblast growth factor-1 (FGF-1) (Homo sapiens, UniProt P05230); experiment: Co-crystallisation with FGF-1 (crystal diffraction of complexes); type: binding
Source text: (§1) FIG. 24. 2-acetoxy-5-hydroxybenzenesulfonic acid co-crystallized with fibroblast growth factor-1. […] The compound occupies a place that is very close to that described occupied by 2,5-dihydroxybenzenesulfonic acid, the aromatic ring of which forms a cation-σ bond with the N^ε group of lysine 132, which is marked in panel A as reference. […] In panels A and B, the protein surface is colored according to its electrostatic potential (light grey: negative charge; dark grey: positive charge; white: lack of charge).
as §1, with “25. 5-acetoxy-2-hydroxybenzenesulfonic” for “24. 2-acetoxy-5-hydroxybenzenesulfonic”, “cation-π” for “cation-σ”
as §1, with “26. 2,5-diacetoxybenzenesulfonic” for “24. 2-acetoxy-5-hydroxybenzenesulfonic”, “cation-π” for “cation-σ”
Based on the crystal diffraction of the FGF-1:2-acetoxy-5-hydroxybenzene sulfonic acid, FGF-1:5-acetoxy-2-hydroxybenzene sulfonic acid and FGF-1:2,5-diacetoxybenzene sulfonic acid complexes, the structures of the complexes were calculated and represented. FIGS. 24, 25 and 26, which show the surface of the dyed protein according to its electrostatic potential (light grey: negative charge; dark grey: positive charge; white: lack of charge), show the manner in which 2-acetoxy-5-hydroxybenzene sulfonic acid, 5-acetoxy-2-hydroxybenzene sulfonic acid and 2,5-diacetoxybenzene sulfonic acid interact, respectively, with FGF-1.

[2] = system: methacholine induced bronchoconstriction in OVA-sensitized mice; experiment: Experimentally induced (OVA) asthma in mice: methacholine bronchoconstriction and BAL cell count; type: in vivo; conditions: for methacholine induced bronchoconstriction (Penh): methacholine 5 and 20 mg/mL
Protocol: Effect of potassium 2,5-diacetoxybenzene sulfonate (DABS) on bronchoconstriction in asthmatic mice treated with methacholine. All the mice were exposed to nebulized methacholine (MC; 5 and 20 mg/ml). Bronchoconstriction was determined as the enhanced pause. (Penh), calculated as described in the corresponding example (example 13).
Effect of potassium 2,5-diacetoxybenzene sulfonate (DABS) on the inflammatory cell count in the bronchoalveolar lavage (BAL) in asthmatic mice.
6-9 week old Balb/c mice were used. The ovoalbumin (OVA)/aluminum complex was obtained after dissolving OVA (500 μg/mL) in PBS, and mixing it with an equal volume of 10% aluminum potassium sulfate at pH 6.5 for 1 hour. After centrifuging the pellet (750×g for 5 minutes) the OVA/aluminum pellet was resuspended in distilled water. On day 0, the mice were injected intraperitoneally injected with 100 μg of OVA/aluminum. Eight days later, the mice were anesthetized and exposed to 250 μg of OVA. Later, they were administered 125 μg of OVA on days 15, 18 and 21. […].
The following treatments were administered to the animals: (i.p.) vehicle from day 2, potassium 2,5-diacetoxybencene sulfonate (DABS; 100 mg/kg/day, i.p.) from day 2, DABS (100 mg/kg/day, i.p.) from day 8 and Combivent (20 μg/200 μg in aerosol) on days 20, 21 and 22, the latter as a reference treatment.
In order to evaluate the pulmonary function, the response to methacholine in conscious mice was determined, 24 hours after the last exposure to OVA. The mice were exposed to increasing methacholine concentrations (5 and 20 mg/mL) in the form of aerosol using an ultrasonic nebulizer during 2 minutes. The degree of bronchoconstriction was expressed as the enhanced pause (Penh) which correlates to the mouse air resistance, impedance and pressure within the pleura. The Penh enh was calculated using the formula Penh=[([…]/Rt−1)×(PEF/PIF)], where Te is expiratory time, Rt is relaxation time, PEF is peak expiratory flow and PIF is peak inspiratory flow x 0.67 coefficient.
After measuring airway hyperreactivity, the mice were sacrificed and the bronchoalveolar lavage (BAL) of the right lung was collected. The total number of cells in the BAL fluid was determined.

[3] = molecular target: T1, fibroblast growth factor-1 (FGF-1); experiment: Inhibition of fibroblast mitogenesis induced by FGF-1 in Balb/c 3T3 fibroblasts; type: cell-based; design: host or cells: added to Balb/c 3T3 fibroblasts (mouse); conditions: quiescent Balb/c 3T3 cultures; potassium salts, except 2-acetoxy-5-hydroxybenzene sulfonate as calcium salt
Protocol: The evaluated compounds were used in the form of potassium salt, except in the first case in which calcium salt was used. The experiments were carried out as described in Fernandez-Tornero C et al. J Biol Chem, 2003.

[4] = system: uterine tissue implanted in the peritoneal cavity; experiment: Rat model of endometriosis (autologous implant, histology); type: in vivo; conditions: 200 mg/kg/day i.p., two weeks
Source text: In these rats, the epithelial layer (a) and the stroma (b) are clearly observed in the endometrium, while longitudinal (c) and circular (d) normal layers of smooth muscle cells are observed in the myometrium adjacent to the peritoneal tissue (e). […] The neovascularization observed in the uterine tissue implanted in control rats (shown with arrows in A) is not present in rats treated with 2,5-dihydroxybenzenesulfonic (DHBS) (C). • D) Magnification of the area marked with a box in C.
Sprague-Dawley rats were anesthetized as described (Fernandez-Tornero C et al. J Biol Chem, 2003). Endometriotic lesions were induced using a known rat model of endometriosis (Vernon M W and Wilson E A. Fertil Steril, 1985). In summary, 2 mm fragments of the cervix were autologously implanted between branches in the mesenteric vascular tree. The rats were treated or not treated (control) daily during two weeks after the surgery with 2,5-dihydroxybenzene sulfonic acid (DHBS) (200 mg/kg; i.p.). Then, the rats were sacrificed and the endometrial ectopic tissue was removed to make its histological examination. […] This example illustrates the therapeutic activity of 2,5-dihydroxybenzene sulfonate (DHBS) in the treatment of endometriosis.

[5] = system: Nakagawa angioblastoma; experiment: Topical treatment of Nakagawa angioblastoma (hemangioblastoma) in a child; type: in vivo, human; conditions: cream 2.5%, topical twice a day, 1 month, one child
Source text: Photographs showing the effects of a topical treatment with a cream comprising 2,5-dihydroxybenzenesulfonic (DHBS) in a child suffering from Nakagawa angioblastoma.
The cream comprising 2,5-dihydroxybenzene sulfonic (2.5%) was topically applied twice a day during 1 month on the face of the child suffering from Nakagawa angioblastoma.

[6] = system: pterygium; experiment: Topical treatment of pterygium in a patient; type: in vivo, human; conditions: 2.5% solution, one drop four times per day, two weeks
Source text: FIG. 3. […] The treatment consists of the application of 4 drops of said solution daily, for two weeks.
The solution was applied topically to a patient suffering from unilateral pterygium, as one drop four times per day.

T1 sequence (P05230 whole entry, species assumed): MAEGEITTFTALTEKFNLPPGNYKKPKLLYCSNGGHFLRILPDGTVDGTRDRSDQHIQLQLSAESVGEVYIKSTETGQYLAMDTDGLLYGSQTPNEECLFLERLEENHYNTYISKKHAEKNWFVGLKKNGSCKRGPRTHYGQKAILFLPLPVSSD

| Compound | acetoxyl groups of the compound when bound to the protein ([1]; electron density contoured at 1σ) | binding site on FGF-1 in the crystal complex ([1]; reference: site of 2,5-dihydroxybenzene sulfonic acid, lysine 132) | reduction of BAL cells compared with Combivent ([2]; 100 mg/kg/day i.p.) | methacholine induced bronchoconstriction (Penh) ([2]; 100 mg/kg/day i.p. from day 2) | methacholine induced bronchoconstriction (Penh) ([2]; 100 mg/kg/day i.p. from day 8) | presence of cells in bronchoalveolar lavage (BAL) ([2]; 100 mg/kg/day i.p., from day 2 or day 8) | increase of Penh after exposure to methacholine vs saline ([2]; DABS groups, 100 mg/kg/day i.p.) | FGF-1 induced mitogenesis [3] | histology of the implanted uterine (cervix) tissue, hematoxylin-eosin [4] | neovascularization of the implanted uterine tissue [4] | intensity of the coloration caused by the lesion [5] | intensity of the coloration caused by the lesion ([5]; listed as 2,5-dihydroxybenzene sulfonic) | pterygium [6] |
| --- | --- | --- | --- | --- | --- | --- | --- | --- | --- | --- | --- | --- | --- |
| CC(=O)Oc1ccc(OC(C)=O)c(S(=O)(=O)[O-])c1.[K+] [DABS, potassium 2,5-diacetoxybenzene sulfonate] | conserve the acetoxyl groups | a site that is very close to the one that has been described occupied by 2,5-dihydroxybenzene sulfonic acid | even more than the treatment with Combivent | completely prevented | completely prevented | significantly reduced | do not show a significant increase | Inhibition | – | – | – | – | – |
| O=S(=O)(O)c1cc(O)ccc1O [DHBS, 2,5-dihydroxybenzenesulfonic acid] | – | – | – | – | – | – | – | – | athrophy of the cervix tissue implanted; also recorded: Degeneration of the uterine tissue implanted | not present | decrease in the intensity of the coloration | reduction in the intensity of the reddish coloration | partial reversal of the pterygium |
